Where no end group is shown, it is not given here.
How the values were obtained:
[1] = system: db/db mice; assay: Blood glucose in db/db mice after intravenous dosing; format: in vivo; details: six week old db/db mice, 0.5-4 hours post-dosing, MMB dose 100-fold lower than peptide dose
Description: Blood glucose was monitored 0.5, 1, 2, 3, and 4 hours post-dosing.

[2] = system: female beagle dogs; assay: Gastric emptying in normal dogs; format: in vivo; details: lidamidine 0.63 mg/kg sc 60 minutes before the meal; GLP-1 MMB 0.1 mg/kg iv 15 minutes before the meal
Description: A gastric cannula was surgically implanted into female beagle dogs (10-15 kg) under general anesthesia and allowed to recover for at least 2 weeks. Dogs were fasted for 24 hours after which water was freely available. The gastric cannula was opened and gastric juice and food remnants were removed with 40-50 ml of lukewarm water. Groups of six dogs were dosed subcutaneously with lidamidine, an alpha2 agonist (0.63 mg/kg), 60 minutes before the meal, a positive control for delay of gastric emptying. […] Five minutes before the meal, the gastric cannula was opened to determine the amount of fluid present in stomach for baseline value and fluid was promptly reintroduced. Then a test meal consisting of 250 ml of a glucose solution (5 g/l) was administered via the cannula and allowed to remain in the stomach for 30 minutes. Gastric contents were drained from the stomach to measure total volume after 30 minutes. […] Glucose concentrations were evaluated for collected samples and used to determine the absolute amount of glucose remaining in the stomach at each time point. The percentage of glucose retained in the stomach was determined from the starting value and the concentration of glucose at each time point and plotted as a function of time. The time at which 50% of the gastric contents were retained was determined by fitting of the curves to a single exponential.

[3] = administered subcutaneously; cited from earlier work
[4] = system: RINm cells; assay: Insulin secretion in RINm cells; format: cell-based; details: peptides 0-5 nM, mimetibodies 5 or 50 nM, ELISA
Description: To test the effect of GLP-1 MMB in insulin secretion, RINm cells were treated with increasing concentrations of GLP-1 (7-36) peptide (0-5 nM), exendin-4 peptide (0-5 nM), or various GLP-1 mimetibodies (5 or 50 nM) and the amount of insulin secreted was measured via ELISA. All GLP-1 MMBs tested had activities in stimulating insulin secretion in RINm cells (FIG. 6).

[5] = system: wild type mice; assay: Food intake in wild type mice; format: in vivo; details: single iv GLP-1 MMB 1 mg/kg, exendin-4 0.07 mg/kg
[6] = system: GLP-1R−/− mice; assay: Food intake in GLP-1R−/− mice; format: in vivo; details: single iv GLP-1 MMB 1 mg/kg, exendin-4 0.07 mg/kg
[7] = system: wild type mice; assay: Glucose tolerance test (ipGTT) in wild type mice; format: in vivo; details: single iv GLP-1 MMB 1 mg/kg, exendin-4 0.07 mg/kg
[8] = system: wild type mice; assay: Gastric emptying in wild type mice; format: in vivo; details: iv GLP-1 MMB 1 mg/kg, exendin-4 0.07 mg/kg
Description: (§1) Materials/Methods: Animals: Male GLP-1R−/− and age matched wild type mice were randomized into three treatment groups (n=5) based on body weight and fasting blood glucose. […] The next morning mice were re-fed for 1 h, food intake was recorded and the mice were deprived of food for the rest of the study. Mice were dosed intravenously as discussed above. Two hours post-dosing mice were euthanized. The stomach was exposed by laparotomy, ligated at both the pylorus and cardia and removed. The stomach content wet weight was measured. Equation 1 was used to calculate the percent of food remaining in the stomach.
(§2) (Stomach Content Wet Weight(g)/Food Intake(g))*100 Equation (1)

[9] = system: GLP-1R−/− mice; assay: Gastric emptying in GLP-1R−/− mice; format: in vivo; details: iv GLP-1 MMB 1 mg/kg, exendin-4 0.07 mg/kg
Description: as §1, §2

In the case of `CC[C@H](C)[C@H](NC(=O)[C@H](Cc1ccccc1)NC(=O)[C@H](CCC(=O)O)NC(=O)[C@H](CCCCN)NC(=O)[C@H](C)NC(=O)[C@H](C)NC(=O)[C@H](CCC(N)=O)NC(=O)CNC(=O)[C@H](CCC(=O)O)NC(=O)[C@H](CC(C)C)NC(=O)[C@H](Cc1ccc(O)cc1)NC(=O)[C@H](CO)NC(=O)[C@H](CO)NC(=O)[C@@H](NC(=O)[C@H](CC(=O)O)NC(=O)[C@H](CO)NC(=O)[C@@H](NC(=O)[C@H](Cc1ccccc1)NC(=O)[C@@H](NC(=O)CNC(=O)[C@H](CCC(=O)O)NC(=O)[C@H](C)NC(=O)[C@@H](N)Cc1c[nH]cn1)[C@@H](C)O)[C@@H](C)O)C(C)C)C(=O)N[C@@H](C)C(=O)N[C@@H](Cc1c[nH]c2ccccc12)C(=O)N[C@@H](CC(C)C)C(=O)N[C@H](C(=O)N[C@@H](CCCCN)C(=O)NCC(=O)N[C@@H](CCCNC(=N)N)C(N)=O)C(C)C` [GLP-1 peptide], the blood glucose [1] was “lowered blood glucose at 30 minutes”.
In the case of `CN=C(N)NC(=O)Nc1c(C)cccc1C` [lidamidine], the “time in which 50% of the gastric contents were emptied” value [2] was 30.60 ± 6.47 min.
For GLP-1 (7-36) amide: GLP-1 (7-36) amide, the time action [3] is given as “about 50 minutes”.
For “GLP-1 (7-36) peptide: wide-type GLP-1 (7-36) peptide (HAEGTFTSDVSSYLEGQAAKEFIAWLVKGR; ends and bridges not checked; UniProt P01275 98-127, looked up)”, the “stimulation of insulin secretion in RINm cells” value [4] was “stimulates insulin release”.
For exendin-4 [reference compound], the “stimulation of insulin secretion in RINm cells” value [4] was “stimulates insulin release”, the “24 hour cumulative food intake vs CNTO1996” value [5] was “statistically significant reduction in food intake” and the “24 hour cumulative food intake” value [6] was “no effect on food intake”. For the same compound, the “area under the curve (AUC) of the ipGTT” value [7] was “statistically significant reduction in the AUC”, the “stomach content (percent of food remaining) 2 h after dosing vs CNTO1996” value [8] was “statistically significant increase in stomach content” and the “gastric emptying 2 h after dosing” value [9] was “no effect on gastric emptying”.
